This note sets out measurements from patent publication US20200179369A1, “TREATMENT OF DIABETIC NEPHROPATHY” (TAKEDA GMBH, priority 2015, published 2020).

For test [1], the system named is uninephrectomized db/db mice. The experiment in a line: Diabetic nephropathy in uninephrectomized db/db mice, 8 week treatment starting 4 weeks after the uninephrectomy. The class given is in vivo. To be noted: 8 weeks starting 4 weeks after uninephrectomy. The protocol:
Male 5-week-old BKS.Cg-+Lepr^db/+Lepr^db (db/db) mice were purchased from CLEA Japan, Inc. All mice were fed with a standard diet (CE-2, CLEA Japan, Inc.) and tap water ad libitum.
Compound A was obtained from Takeda GmbH, Konstanz, Germany. Irbesartan was purchased from LKT Laboratories, Inc (USA).
In 6 week old male db/db mice an unilateral nephrectomy was performed. Under the anesthesia with isoflurane inhalation, the right kidney was removed from the mice. After 4-week recovery period, blood samples were obtained by the puncture of facial vein and blood level of glycosylated hemoglobin (GHb) was measured by automated HPLC-based GHb analyzer (HLC-723 G8, TOSOH, Japan). After the separation of plasma samples by centrifugation, also plasma levels of glucose (PG) were measured by Autoanalyzer 7180 (Hitachi, Japan). Urine samples were collected for a 8 h time-period using metabolic cages and urine creatinine level was measured by Autoanalyzer 7180. After desaltation of urine samples with PD MiniTrap G-25 column (GE healthcare, UK), urinary levels of albumin were measured by ELISA, and urinary albumin/creatinine ratio (UACR) was calculated.
Compound A (1, 3 and 10 mg/kg, QD), roflumilast (3 mg/kg, QD) and irbesartan (50 mg/kg, QD) were suspended in 0.5% methyl cellulose solution and orally administered to mice for 8 weeks starting 4 weeks after the uninephrectomy.
At the end of the 8 weeks once daily administration blood, plasma and urine samples were obtained according to the same methods as described above. GHb, PG, urinary creatinine and albumin were measured and UACR was calculated. Body weight (BW) was measured every week during the treatment.
For evaluation of the effects of Compound A, statistical differences between vehicle- and Compound A treated groups were analyzed with two-tailed Williams' test for PG and BW and two-tailed Shirley-Williams' test for UACR and GHb. The P-values less than 0.05 were considered statistically significant in two-tailed Williams' test or Shirley-Williams' test.
For roflumilast and irbesartan, statistical differences between vehicle- and compounds-treated groups were analyzed with Student's t-test for GHb, PG and BW and Welch test for UACR. The P-values less than 0.05 were considered statistically significant in Student's t-test and Welch test.

The subject of test [2] is uninephrectomized db/db mice. The experiment in a line: Diabetic nephropathy in uninephrectomized db/db mice, 8 week treatment starting 12 weeks after the uninephrectomy. Particulars: 8 weeks starting 12 weeks after uninephrectomy. It is filed as in vivo. The protocol: The experimental protocol is similar to the experimental protocol described above with the exception that the 8 week treatment with Compound A or irbesartan was started not already at 4 weeks after the uninephrectomy, but only 12 weeks after the uninephrectomy (i.e. when the increase of urinary albumin/creatinine ratio (UACR) is already in a much more advanced stage). Roflumilast was not used as a comparator in this experiment.
Compound A (1, 3 and 10 mg/kg, QD) and irbesartan (50 and 100 mg/kg, QD) were suspended in 0.5% methyl cellulose solution and orally administered to mice for 8 weeks starting 12 weeks after the uninephrectomy.
For evaluation of the effects of Compound A, statistical differences between vehicle- and Compound A treated groups were analyzed with one-tailed Williams' test for GHB, PG and BW and one-tailed Shirley-Williams' test for UACR. For irbesartan, statistical differences between vehicle- and irbesartan treated groups were analyzed with one-tailed Williams' test for UACR, GHb, PG and BW. The P-values less than 0.025 were considered statistically significant in one-tailed Williams' test or one-tailed Shirley-Williams' test.

For the compound `O=C(Nc1c(Cl)cncc1Cl)c1ccc(OC(F)F)c(OCC2CC2)c1` [roflumilast, reference compound], in test [1] (3 mg/kg QD oral), the “effect on blood level of glycosylated hemoglobin (GHb)” value is “Almost no effect compared to the vehicle group”; the “effect on increase of urinary albumin/creatinine ratio (UACR)” value is “mild and was not statistically significant”; the “effect on plasma levels of glucose (PG)” value is on record as “Almost no effect compared to the vehicle group”.
Take `CCCCC1=NC2(CCCC2)C(=O)N1Cc1ccc(-c2ccccc2-c2nnn[nH]2)cc1` [irbesartan, 2-butyl-3-[p-(o-1H-tetrazol-5-ylphenyl)benzyl]-1,3-diazaspiro[4.4]non-1-en-4-one, reference compound]: the “effect on urinary albumin/creatinine ratio (UACR)” value in test [2] (50 mg/kg QD oral) was “significant suppression on increase in UACR”. In test [2] (100 mg/kg QD oral), the “effect on urinary albumin/creatinine ratio (UACR)” value was “significant suppression on increase in UACR”. Besides, in test [2] (50 and 100 mg/kg QD oral), the “effect on body weight (BW)” value was “Neither Compound A nor Irbesartan affected the body weight”, the “effect on glucose plasma levels (PG)” value is listed as “did not show inhibitory effects” and the “effect on glycosylated hemoglobin (GHb)” value was “did not show inhibitory effects”. In test [1] (50 mg/kg QD oral), the “effect on blood level of glycosylated hemoglobin (GHb)” value was “Almost no effect compared to the vehicle group”; the “effect on increase of urinary albumin/creatinine ratio (UACR)” value is recorded as “tended to suppress the increase of UACR, but its effect was not statistically significant”; the “effect on plasma levels of glucose (PG)” value was “Almost no effect compared to the vehicle group”.
